# Experimental data as given in patent publication US20230129485A1, “SYSTEM AND METHOD FOR DETERMINING MATERIAL PROPERTIES OF MOLECULAR SYSTEMS FROM AN AB-INITIO PARAMETERIZED FORCE-FIELD” (InterX, Inc., priority 2021, published 2023).
# Columns and labels:
# [1] = Free energy of hydration predicted with the QM-parameterized force field model (ARROW FF), classical MD and PIMD simulation in a water box; conditions: for water Arrow MD Error / water Arrow PIMD8 Error: Table 3; for water Arrow MD Error: absolute error of MD hydration free energy vs experiment; for water Arrow PIMD8 Error: absolute error of PIMD8 hydration free energy vs experiment; for Arrow PIMD8 Error: absolute error vs Exp (hydration)
# Source text: For example, the example QM-parameterized force-field molecular simulation process 400 can use Bennett Acceptance Ratio (BAR) to compute the free energy of hydration/solvation of the molecule in water or any other solvent. In some implementations, the analysis of the molecular dynamics simulations includes analysis, predication, and visualization of ensemble properties of atoms/molecules from atomic and molecular trajectories using the optimized parameters of the QM-parameterized force field model (i.e., the quantum mechanics rule-based reasoning technique) and the QM-parameterized force field model.
# In some simulations of the QM-parameterized force field molecular simulation process, the molecules were placed in a water or cyclohexane box of size 32×32×32 Å3. Particle-Mesh Ewald (PME) algorithm was used to compute the electrostatic interactions. A 32×32×32 grid mesh and 5th power spline interpolation order can be used to compute the inverse PME sum. 9 Å cutoffs were used to compute the direct PME sum as well as the exchange and dispersion interactions. Bulk corrections were applied to account for distance cut-off of dispersion interactions. Solvation free energies were computed by decoupling the interactions between the solute and the solvent molecules. Electrostatic, exchange-repulsion and dispersion interactions were switched off simultaneously using a lambda-dependent scaling (a scaling factor power=2 was used) and a soft-coring algorithm (maximal soft-coring radius=1.5 Å, soft-coring radius scaling factor power=1). 15 lambda points unequally spaced (X=0, 0.05, 0.1, 0.2, 0.3, 0.4, 0.5, 0.6, 0.7, 0.75, 0.8, 0.85, 0.9, 0.95, 1.0) were used to decouple the solute-solvent intermolecular interactions.
# In some simulations of the QM-parameterized force field molecular simulation process, energy minimization (10,000 steps) using the steepest descent algorithm was initially performed on all the simulation systems. This was followed by a 50 ps equilibration and 1 ns production runs in the isothermal-isobaric ensemble (NPT). […] Pressure was maintained at 1 atm using a MTTK barostat (relaxation time=5 ps). A Multiple Time Step (MTS) algorithm was used to integrate the equations of motion both for the classical and path-integral runs. […] The calculations were performed using the QM-parameterized force field model.
# Using the QM-parameterized force field model, the QM-parameterized force field device can compute or predict the solvation free energies using both the Bennett acceptance ratio (BAR) and thermodynamic integration (TI) method with <dH/dλ> values interpolated by cubic splines. […] FIG. 7A illustrates a <dH/dλ> dependence for desolvation of Anthracene in water. FIG. 7B illustrates accumulated statistical errors for TI calculations of AG desolvation of Anthracene in water.
# [2] = Table 3; free energy of hydration, experimental; cited from earlier work
# [3] = Free energy of hydration by COSMO implicit solvent model (MolPro ver. 2012); conditions: absolute error vs Exp (hydration)
# Description: (§1) Due to unavailability of free energy data for the original COSMO model, the free energies of solvation for the molecule dataset are calculated using MolPro ver. […] The comparisons to other implicit solvent models such as SMD, PCM and COSMO-RS are limited to the overlap of the molecules computed using QM-parameterized force field model. The free energies of hydration as predicted by these implicit solvent models (SMD, PCM) were received.
# [4] = Free energy of hydration by COSMO-RS
# Description: as §1
# [5] = implicit solvent model, values received; cited from earlier work
# [6] = Free energy of hydration by Polarizable Continuum Model (PCM); conditions: absolute error vs Exp (hydration)
# Description: as §1
# [7] = Free energy of hydration by Solvation Model Dielectric (SMD) implicit solvent model; conditions: absolute error vs Exp (hydration)
# Description: as §1
# [8] = implicit solvent model, values received; cited from earlier work; remark: listed apart in the source
# [9] = CHEX/H2O partition coefficient (log D) predicted with the QM-parameterized force field model (ARROW FF)
# Source text: In some simulations, the example QM-parameterized force-field molecular simulation process includes using the functional form of the bonded interactions, with force constants and equilibrium values fitted to QM energies at the MP2/aug-cc-pVTZ level of theory. In some simulations, solvents of water and cyclohexane are selected. Cyclohexane (CHEX) is nonpolar and equilibrates relatively quickly. Reliable experimental data for both CHEX solvation free energies, as well as for the CHEX/H2O partition coefficients are used in these simulations.
# In some example simulations, solutes containing neutral chemical functional groups, for example carboxylic acids, alkanes, alkenes, aromatics, aldehydes, ketones, alcohols, amides, esters, thiols, sulfides, disulfides and heterocycles, are used. The simulations were performed independently by four groups using their own respective computational resources and architectures, and then averaged. FIGS. 9A-9C show solvation and hydration free energies predictions of various solutes, using the QM-parameterized force field model, in some embodiments.
# The straight line is a line of agreement between experimental and simulated/predicted values, and the gray bar is the range or chemical accuracy. […] The molecules here are a subset of those in a) because only those with experimental values for CHEX solvation can be included.
Compound,water Arrow MD Error [1],water Arrow PIMD8 Error [1],Arrow PIMD8 Error [1],water Exp (hydration) [2],COSMO/Molpro Error [3],COSMO-RS error [4],PCM free energy of hydration [5],PCM Error [6],SMD Error [7],SMD free energy of hydration [8],log D Arrow MD Error [9],log D Arrow PIMD Error [9],logD Arrow MD Error [9],logD Arrow PIMD Error [9]
c1ccc(-c2ccccc2)cc1 [Biphenyl],1.17 kcal/mol,0.13 kcal/mol,0.13 kcal/mol,-2.66 kcal/mol,2.64 kcal/mol,0.31 kcal/mol,–,–,–,–,–,–,–,–
C1CCCCCC1 [Cycloheptane],0.67 kcal/mol,0.12 kcal/mol,0.12 kcal/mol,0.79 kcal/mol,1.32 kcal/mol,–,–,–,–,–,–,–,–,–
C1CCCC1 [Cyclopentane],0.71 kcal/mol,0.12 kcal/mol,–,1.20 kcal/mol,–,–,–,–,–,–,–,–,–,–
CCSCC [DiEthylSulfide],0.89 kcal/mol,0.12 kcal/mol,0.12 kcal/mol,-1.43 kcal/mol,3.37 kcal/mol,–,-2.00 kcal/mol,0.57 kcal/mol,1.23 kcal/mol,-0.20 kcal/mol,–,–,–,–
CC(=O)N(C)C [DiMethylAcetamide],–,–,–,–,2.31 kcal/mol,0.37 kcal/mol,–,–,–,–,–,–,–,–
CCOCC [DiethylEther],0.95 kcal/mol,0.10 kcal/mol,0.10 kcal/mol,-1.75 kcal/mol,2.00 kcal/mol,–,-1.90 kcal/mol,0.15 kcal/mol,0.55 kcal/mol,-1.20 kcal/mol,–,–,–,–
CCS [EthaneThiol],0.94 kcal/mol,0.43 kcal/mol,0.43 kcal/mol,-1.24 kcal/mol,2.70 kcal/mol,–,-2.10 kcal/mol,0.86 kcal/mol,0.24 kcal/mol,-1.00 kcal/mol,–,–,–,–
CCCOC [MethylPropylEther],0.66 kcal/mol,0.00 kcal/mol,0.00 kcal/mol,-1.66 kcal/mol,3.19 kcal/mol,–,-1.80 kcal/mol,0.14 kcal/mol,1.16 kcal/mol,-0.50 kcal/mol,–,–,–,–
CC(C)(C)C [NeoPentane],1.05 kcal/mol,0.12 kcal/mol,0.12 kcal/mol,2.50 kcal/mol,3.25 kcal/mol,–,-0.30 kcal/mol,2.80 kcal/mol,0.30 kcal/mol,2.20 kcal/mol,–,–,–,–
Cc1ccc(O)cc1 [p-cresol],–,–,–,–,–,–,–,–,–,–,0.73,0.11,0.73,0.11
c1ccc2c(c1)ccc1ccccc12 [phenanthrene],0.35 kcal/mol,0.09 kcal/mol,0.09 kcal/mol,-3.88 kcal/mol,1.97 kcal/mol,–,–,–,–,–,–,–,–,–
c1cc2ccc3cccc4ccc(c1)c2c34 [pyrene],0.45 kcal/mol,0.01 kcal/mol,0.01 kcal/mol,-4.52 kcal/mol,1.32 kcal/mol,–,–,–,–,–,–,–,–,–
c1ccc2cc3cc4ccccc4cc3cc2c1 [tetracene],0.39 kcal/mol,0.44 kcal/mol,0.44 kcal/mol,-5.5 kcal/mol,1.43 kcal/mol,–,–,–,–,–,–,–,–,–
